Test results from PubChem BioAssay AID1259332 (Broad Institute, 2017).
The source made the active and inactive calls. How the calls were made is not given here.

Test system: B cell line, CD40 signaling inhibition reporter
Assay: CD40 pathway inhibition in B cells – B cell lineage, dose response (AID 1259332);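 further: cells stimulated with CD40 ligand tCD40L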

| SMILES | AC50 |
| --- | --- |
| C=CC[n+]1c(/C=C2\C=Cc3cc(C)ccc3N2CC)ccc2ccccc21 | 2.7 µM |
| CCS(=O)(=O)N1Cc2ccccc2CC1C(=O)Nc1nc2ccccc2s1 (configuration not stated) | 10.9 µM |
| C[C@H]1CN([C@@H](C)CO)C(=O)c2c(c3ccccc3n2C)-c2ccccc2CO[C@H]1CN(C)C(=O)Nc1ccccc1C(F)(F)F | > 20 µM (inactive) |
| C[C@@H]1CN([C@@H](C)CO)C(=O)c2c(c3ccccc3n2C)-c2ccccc2CO[C@@H]1CN(C)C(=O)Nc1ccccc1C(F)(F)F | 9.94 µM |
| COC(=O)C[C@](O)(CCCC(C)(C)O)C(=O)O[C@@H]1C(OC)=C[C@]23CCCN2CCc2cc4c(cc2[C@H]13)OCO4 | < 0.0046 µM |
| Cc1cc(OCC(=O)OCC(=O)NCc2ccco2)ccc1Cl | 9.63 µM |
| C[C@@H]1CN([C@@H](C)CO)C(=O)c2ccccc2-c2ccccc2CO[C@H]1CN(C)Cc1ccccc1C(F)(F)F | 8.01 µM |
| COc1ccc(/C=C\c2nc(=O)c3ccccc3o2)cc1 | 7.67 µM |
| O=C1c2ccccc2C(=O)C1c1ccc2ccccc2n1 | 6.15 µM |
| N#C[C@H]1[C@H](c2ccc(C#Cc3ccccc3F)cc2)[C@@H](CO)N1C(=O)C1CC1 | > 20 µM (inactive) |
| CCOc1ccc(OCc2cccc(C(=O)N3CCOCC3)c2)cc1 | 2.92 µM |
| CCc1csc(N2[C@H](C#N)[C@H](c3ccc(C#Cc4ccc(F)cc4)cc3)[C@H]2CO)n1 | > 20 µM (inactive) |
| CCCCNC(=O)C1(C)CCN1C(=O)c1cc(-c2cccs2)oc1C (configuration not stated) | 3.11 µM |
| C[C@@H]1O[C@@H](O[C@H]2C[C@@H](O)[C@]3(CO)C4C(CC[C@]3(O)C2)[C@@]2(O)CC[C@H](C3=CC(=O)OC3)[C@@]2(C)C[C@H]4O)[C@H](O)[C@H](O)[C@H]1O (some centres not stated) | 0.294 µM |
| Cc1ccnc(NC(=O)c2ccc(OCC3CCCO3)cc2)c1 (configuration not stated) | 5.23 µM |
| COc1ccc(C(=O)CCN2CCc3cc(OC)c(OC)cc3C2)cc1 | 5.82 µM |
| COc1ccc(CN(CCC(c2ccccc2)c2ccc(OC(C)C)cc2)C(=O)CCl)cc1OC (configuration not stated) | 1.68 µM |
| COC1=CC(=O)c2c(ccc3ncnc(N)c23)C1=O | 1.66 µM |
| CC1OC(CC(=O)O)CC2=C1C(=O)c1c(O)cccc1C2=O (configuration not stated) | 0.204 µM |

| SMILES | AC50 |
| --- | --- |
| Fc1ccccc1CNCCC(Cc1ccccc1)c1ccc2c(c1)OCO2 (configuration not stated) | 5.98 µM |
| CC(=O)OC1CCC2(C)C(CCC3C4CC=C(C(C)=O)C4(C)OC(=O)CC32)C1 (configuration not stated) | 2.3 µM |
| C[C@H]1CN([C@@H](C)CO)C(=O)c2c(c3ccccc3n2C)-c2ccccc2CO[C@H]1CN(C)C(=O)Nc1cccc(C(F)(F)F)c1 | 8.34 µM |
| Nc1nc(=O)c2ccccc2s1 | 8.69 µM |
| COC(=O)c1ccccc1-c1c2ccc(=N)cc-2oc2cc(N)ccc12 | 10.9 µM |
| CC(=NNC(=S)N1CC2CCC(CC2)C1)c1nccs1 | > 7 µM (inactive) |
| NC(=O)c1c(Br)n(C2OC(CO)C(O)C2O)c2ncnc(N)c12 (configuration not stated) | 3.84 µM |
| CC(C)CC#Cc1ccc([C@@H]2[C@H]3CN(C(=O)Nc4ccccc4)CCCCN3[C@H]2CO)cc1 | 9.52 µM |
| Cc1ccc(S(=O)(=O)C=CS(=O)(=O)c2ccc(C)cc2)cc1 | 0.996 µM |
| C[C@H]1CN([C@@H](C)CO)C(=O)Cc2cc(NS(=O)(=O)c3cccs3)ccc2O[C@@H]1CN(C)Cc1ccc(Cl)c(Cl)c1 | 5.83 µM |
| CCCn1c(NC(=O)c2cccc(S(=O)(=O)N3CCCC3)c2)nc2ccccc21 | 2.02 µM |
| N#C[C@@H]1[C@H](c2ccc(C#Cc3ccccc3F)cc2)[C@@H](CO)N1C(=O)c1cccnc1 | 4.37 µM |
| Cc1ccccc1NC(=O)c1nc(S(C)(=O)=O)ncc1Cl | 1.68 µM |
| c1ccc(-c2ccc(-c3ccccn3)nn2)nc1 | 7.89 µM |
| Cc1cc(C)cc(N2C(=O)CC(Sc3nnnn3-c3ccccc3)C2=O)c1 (configuration not stated) | 0.675 µM |
| C[C@H]1CN([C@@H](C)CO)C(=O)c2c(c3ccccc3n2C)-c2ccccc2CO[C@@H]1CN(C)Cc1cccc(C(F)(F)F)c1 | 2.17 µM |
| CCC1=C(CC2NCCc3ccccc32)CC2c3cc(OC)c(OC)cc3CCN2C1 (configuration not stated) | 1.75 µM |
| CC1CCOC(=O)C=CC=CC(=O)OC2CC3OC4C5OC5(C)C(O)CC4(COC(=O)C1O)C2(C)C31CO1 (configuration not stated) | 0.0446 µM |
